From PubChem BioAssay AID1963846 (Molecular Pharmacology Branch, DTP, NCI, 2024)
Where “and” joins values, the source holds several entries; their conditions need not be identical. Equal values may be shown once.

Test system: 454973-116-R2-J3-PDC complex spheroid viability
Assay: Anticancer human tumor 454973-116-R2-J3-PDC patient-derived pancreatic carcinoma cell line growth inhibition [POLQ]
Details: for viability, T/C: stronger effect = lower value; active means viability on the fitted dose curve at most 10% of control; inactive means the rest
Method: Multicellular complex tumor spheroid response to Polymerase (POL) inhibitors (novobiocin, ART-558, RP6685) in combination with a variety of drugs and investigational agents in selected tumor cell lines
The POL inhibitors (novobiocin, ART-558, and RP6685) were evaluated both individually and in combination with standard of care and investigational anticancer small molecules within a complex spheroid model of solid tumors. . Complex spheroids include a stromal component modeled by human endothelial cells (HUVEC) and fibroblasts modeled by human mesenchymal stem cells (MSCs). The concentration ranges selected for each drug and investigational agent were based upon clinically achievable concentrations if the clinical Cmax of the agent was known.
Compounds. The drugs and investigational agents: novobiocin (NSC847541), ART-558 (NSC835418), RP-6685 (NSC848927), peposertib (NSC802822), ceralasertib (NSC780249), elimusertib (NSC800525), camonsertib (NSC841442), AZD-1390 (NSC803789), olaparib (NSC753686), talazoparib (NSC767125), rucaparib (NSC756644), sotorasib (NSC818433), MRTX-1133 (NSC836407), SN-38 (NSC673596), topotecan (NSC609699), epotoside (NSC141540), doxorubicin (NSC123127), gemcitabine (NSC613327), 5-fluorouracil (NSC19893), paclitaxel (NSC125973), vemurafenib (NSC761431), MSA-2 (NSC828583), SN-011 (NSC837082), adavosertib (NSC754352), prexasertib (NSC758257), carboplatin (NSC241240) and oxaliplatin (NSC266046), were obtained from the National Cancer Institute (NCI) Developmental Therapeutics Program Chemical Repository (21). The FDA-approved anticancer drug set is available from the Developmental Therapeutics Program at https://dtp.cancer.gov/organization/dscb/obtaining/. […] The stock solutions were prepared in dimethyl sulfoxide (DMSO, Sigma-Aldrich, St. Louis, MO, cat. D2650), except for the platinum compounds which were prepared in saline (Quality Biological, Gaithersburg, MD, cat. 114-055-101), at 800-fold the tested concentration and stored at -70 degrees C prior to their use. All drugs and investigational agents were tested over a range starting from a high concentration at or near the clinical Cmax and decreasing in half-log increments. If the clinical Cmax for an agent had not been determined, the highest concentration tested was 10 microM, except for SN-38, which was tested at a high concentration of 1 microM.
Cell Culture. All cells were maintained in an incubator at 37 degrees C and 5% CO2 with 95% humidity. The PDC lines were cultured according to standard operating procedures established by the NCI PDMR (https://pdmr.cancer.gov). Table 3 of the manuscript, lists the cell lines along with the number of the three cell types plated to form the mct-spheroids and media for tumor cell growth. After thawing, all PDC lines, except 997537-175-T-J1-PDC and 415267-285-R-J2-PDC, were cultured in Matrigel-coated flasks prepared with a working solution of 1X Ham's F-12 nutrient mix, without supplementation (Thermo Fisher Scientific, cat. 11765054), 100 U/mL penicillin-streptomycin (Thermo Fisher Scientific, cat. 15140122), and 2.5% Matrigel (Corning Inc., Corning, NY, cat. 354248) for the first three passages. The two PDC lines 997537-175-T-J1-PDC and 415267-285-R-J2-PDC were cultured on uncoated flasks. The 857933-349-R-J2-PDC line was cultured in 6C/Colon 1B media containing advanced DMEM/F-12 (Thermo Fisher Scientific, cat. 12634028), 10 mM HEPES (Thermo Fisher Scientific, cat. 15630080), 1X GlutaMAX supplement (Thermo Fisher Scientific, cat. 35050061), 0.1 mg/mL primocin (InvivoGen, San Diego, CA, cat. ant-pm-2), 10% defined fetal bovine serum, heat inactivated (HyClone Laboratories Inc., Logan, UT, cat. SH30070.03HI), 50% L-WRN conditioned media (ATCC, cat. CRL-3276), 1.25 mM N-Acetyl-L-cysteine (Sigma-Aldrich, cat. A9165), 10 mM nicotinamide (Sigma-Aldrich, cat. N0636), 1X B-27 supplement (Thermo Fisher Scientific, cat. 17504044), 1X N-2 supplement (Thermo Fisher Scientific, cat. […]
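Further: spheroids exposed to drugs for seven days before measurement.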
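Wherever viability, T/C is given: percent viability relative to DMSO vehicle control wells taken as 100%.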

CC(=O)O[C@H]1C(=O)[C@@]2(C)[C@H]([C@H](OC(=O)c3ccccc3)[C@]3(O)C[C@H](OC(=O)[C@H](O)[C@@H](NC(=O)c4ccccc4)c4ccccc4)C(C)=C1C3(C)C)[C@]1(OC(C)=O)CO[C@@H]1C[C@@H]2O
active: viability, T/C (compound 0.03 µM) 4.28% and 4.53% and 8.36% | viability, T/C (compound 0.0949 µM) 6.3% and 3.83% and 4.72% | viability, T/C (compound 0.3 µM) 4.7% and 3.78% and 4.01% | viability, T/C (compound 0.949 µM) 4.44% and 4.41% and 4.87% | viability, T/C (compound 3 µM) 4.64% and 4.24% and 4.62%
6.41% and 6.34% and 12.2%: viability, T/C (compound 0.00949 µM)
< 0.00949 µM: IC50 (curve of compound)

CNCc1ccc(-c2[nH]c3cc(F)cc4c3c2CCNC4=O)cc1 + Cc1cccc(N(C)C(=O)C2C(O)CCN2c2nc(C)cc(C(F)(F)F)c2C#N)c1
> 10 µM: IC50 (curve of first compound, second compound 0.0316 µM) | IC50 (curve of first compound, second compound 0.1 µM) | IC50 (curve of first compound, second compound 0.316 µM) | IC50 (curve of first compound, second compound 1 µM) | IC50 (curve of first compound, second compound 3.16 µM) | IC50 (curve of first compound, second compound 10 µM)
inactive: viability, T/C (second compound 0.0316 µM, first compound 0.0316 µM) 110% | viability, T/C (second compound 0.0316 µM, first compound 0.1 µM) 96.1% | viability, T/C (second compound 0.0316 µM, first compound 0.316 µM) 101% | viability, T/C (second compound 0.0316 µM, first compound 1 µM) 103% | viability, T/C (second compound 0.0316 µM, first compound 3.16 µM) 101% | viability, T/C (second compound 0.0316 µM, first compound 10 µM) 79.1% | viability, T/C (second compound 0.1 µM, first compound 0.0316 µM) 94% | viability, T/C (second compound 0.1 µM, first compound 0.1 µM) 108% | viability, T/C (second compound 0.1 µM, first compound 0.316 µM) 97.8% | viability, T/C (second compound 0.1 µM, first compound 1 µM) 102% | viability, T/C (second compound 0.1 µM, first compound 3.16 µM) 99.4% | viability, T/C (second compound 0.1 µM, first compound 10 µM) 83% | viability, T/C (second compound 0.316 µM, first compound 0.0316 µM) 106% | viability, T/C (second compound 0.316 µM, first compound 0.1 µM) 102% | viability, T/C (second compound 0.316 µM, first compound 0.316 µM) 107% | viability, T/C (second compound 0.316 µM, first compound 1 µM) 98.9% | viability, T/C (second compound 0.316 µM, first compound 3.16 µM) 104% | viability, T/C (second compound 0.316 µM, first compound 10 µM) 85.8% | viability, T/C (second compound 1 µM, first compound 0.0316 µM) 108% | viability, T/C (second compound 1 µM, first compound 0.1 µM) 111% | viability, T/C (second compound 1 µM, first compound 0.316 µM) 103% | viability, T/C (second compound 1 µM, first compound 1 µM) 97.2% | viability, T/C (second compound 1 µM, first compound 3.16 µM) 100% | viability, T/C (second compound 1 µM, first compound 10 µM) 86.6% | viability, T/C (second compound 3.16 µM, first compound 0.0316 µM) 109% | viability, T/C (second compound 3.16 µM, first compound 0.1 µM) 105% | viability, T/C (second compound 3.16 µM, first compound 0.316 µM) 105% | viability, T/C (second compound 3.16 µM, first compound 1 µM) 106% | viability, T/C (second compound 3.16 µM, first compound 3.16 µM) 106% | viability, T/C (second compound 3.16 µM, first compound 10 µM) 82.9% | viability, T/C (second compound 10 µM, first compound 0.0316 µM) 118% | viability, T/C (second compound 10 µM, first compound 0.1 µM) 105% | viability, T/C (second compound 10 µM, first compound 0.316 µM) 101% | viability, T/C (second compound 10 µM, first compound 1 µM) 95.6% | viability, T/C (second compound 10 µM, first compound 3.16 µM) 106% | viability, T/C (second compound 10 µM, first compound 10 µM) 74.9%
